Assay results published in PMC5441612, “Oligopeptides as full-length New Delhi metallo-β-lactamase-1 (NDM-1) inhibitors” (PLoS ONE, 2017).
Residues, ends and D or L forms follow the SMILES beside them.

Assays:
[1] = test system: E. coli BL21 (DE3)/pET30a; experiment: MIC of β-lactam antibiotics by E-test method; assay type: cell-based; conditions: Escherichia coli, 24 h
[2] = test system: P. aeruginosa with blaNDM-1; experiment: MIC of β-lactam antibiotics by E-test method; assay type: cell-based; conditions: Pseudomonas aeruginosa, 24 h
Method: (§1) E. coli BL21(DE3) cells were transformed with the pET30a plasmid encoding the NDM-1 gene (Gen Bank ID: HQ162469). E. coli BL21(DE3)/pET30a-NDM-1 was grown overnight at 37°C in liquid Luria-Bertani (LB) broth containing 50μg/ml kanamycin, 100μg/ml ampicillin and 50μM Zn(NO3)2 to select for E. coli clones containing the plasmid of pET30a-NDM-1. Two strains, E. coli BL21 (DE3)/pET30a-NDM-1 overexpressing NDM-1 and P. aeruginosa isolated from Renmin Hospital of Wuhan University with blaNDM-1 confirmed by PCR (data not shown), were cultured overnight, respectively. The cultures were diluted 1:100, grown to an optical density at 600 nm (OD600) of ~0.6, and spread onto LB agar. After naturally drying for five minutes, E-test strips (AB Biodisk, Solna, Sweden) were applied to the ~150mm Mueller-Hinton (MH) (Tianhe Microbial Agents, Hangzhou, China) agar plates and grown for 24h at 35°C to 37°C without further intervention. The antibiotic strips respectively containing penicillin G, ampicillin, cephalothin, cefuroxime, ceftazidime, cefepime, meropenem, ertapenem, aztreonam were used for testing susceptibility. The results were obtained in accordance with the Clinical and Laboratory Standards Institute (CLSI) guidelines.

[3] = test system: E. coli BL21 (DE3)/pET30a-NDM-1; experiment: MIC of β-lactam antibiotics by E-test method; assay type: cell-based; conditions: Escherichia coli, 24 h
Method: as §1

[4] = test system: E. coli BL21 (DE3); experiment: MIC of β-lactam antibiotics by E-test method; assay type: cell-based; conditions: Escherichia coli, 24 h
[5] = test system: E. coli BL21 (DE3)/pET30a-NDM-1; experiment: Synergistic antibacterial effect of ertapenem combined with oligopeptide (twofold broth dilution); assay type: cell-based; conditions: ertapenem alone at 256 μg/ml; NDM-1 strain
Method: E. coli BL21 (DE3)/pET30a-NDM-1 overexpressing NDM-1 and a clinical isolate of P. aeruginosa with blaNDM-1 were also utilized to evaluate the bioactivities of oligopeptides, which reversed NDM-1-mediated β-lactam antibiotics resistance. Determination of antibacterial synergy was performed using a serial twofold dilutions method recommended by CLSI guidelines. E. coli BL21 (DE3)/pET30a was used as a control in the experiment. Minimum inhibitory concentrations (MICs) of the agents were determined by the twofold serial dilution with Mueller-Hinton (MH) broth (Shifeng Biotech Corp., Shanghai, China). For this assay, E. coli BL21 (DE3)/pET30a-NDM-1 was grown overnight in MH broth media containing 50μg/ml kanamycin at 37°C [23]. β-lactam antibiotic and oligopeptide at various concentrations were added to 120μL broth media of a 1:20 dilution of the overnight culture, resulting the final volume of 150μL [24]. The growth of bacterial cultures was set up in 96-well microplates, which incubated at 37°C with constant shaking continuously for 18 h and a reading at 630 nm was taken to determine the MICs of synergistic effect. The lowest antibiotic concentration preventing visible growth was deemed to be the MIC value. […] Every data of reading was repeated thrice, and each experiment mentioned above was performed at least two times.

[6] = biological target: full-length NDM-1 (Klebsiella pneumoniae, UniProt C7C422); experiment: biochemical; conditions: IC50 (Mean±SD), full-length NDM-1, ertapenem 80 μM as substrate, 15 min pre-incubation at 35°C
Method: The full-length NDM-1 enzyme was expressed and purified by a method from a previously published procedure. All the oligopeptides were synthesized by GL Biochem. (Shanghai), Ltd., China, with a purity of >95%. The target of NDM-1 enzyme was pre-incubated with the desired oligopeptide for 15min at 35°C before the assay by adding the inhibitor. The oligopeptides used for testing were dissolved in 10mM phosphate-buffered saline (PBS) buffer (pH7.0), containing dimethyl sulfoxide (DMSO) with the final concentration of 0.25% (V/V). […] Ertapenem (80μM) was used as report substrate. The hydrolysis of the substrate by the NDM-1 was detected by monitoring the variation in absorbance resulting from the opening of the β-lactam ring. All the determinations were made on a spectrophotometer (UV-1750, Shimadzu, Japan) connected to a personal computer. The enzymatic reactions were carried out in a total volume of 100μL. The reaction buffer contained 20mM HEPES buffer, pH7.3, 0.25M NaCl, 1mM 1,4-Dithio-DL-threitol (DTT) (Beinglay Biotech Corp., Wuhan, China), 50μM Zn(NO3)2 and 10mg/ml bovine serum albumin (BSA) preventing NDM-1 denaturation. The ultraviolet (UV) absorbance detector was set at 300 nm, a λ max for ertapenem. The IC50 values were determined more than three times by fitting the concentration dependence of residual enzyme activity to the nonlinear regression (curve fit) using GraphPad Prism (GraphPad Software, La Jolla, America).

Sequence of full-length NDM-1 (C7C422 29-270 limits assumed): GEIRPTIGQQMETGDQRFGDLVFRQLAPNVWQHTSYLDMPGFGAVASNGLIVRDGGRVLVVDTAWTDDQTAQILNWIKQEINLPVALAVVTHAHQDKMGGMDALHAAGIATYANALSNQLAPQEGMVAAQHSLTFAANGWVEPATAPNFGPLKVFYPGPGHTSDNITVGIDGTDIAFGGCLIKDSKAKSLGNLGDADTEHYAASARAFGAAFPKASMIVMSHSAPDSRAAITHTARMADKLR

Structure (SMILES)	MIC [1] [µg/mL]	MIC [2] [µg/mL]	MIC [3] [µg/mL]	MIC [4] [µg/mL]	growth in broth media containing ertapenem [5]	IC50 [6] [µM]
CC1(C)S[C@@H]2[C@H](NC(=O)[C@H](N)c3ccccc3)C(=O)N2[C@H]1C(=O)O [Ampicillin]	8	> 256	> 256	6	–	–
C[C@H]1[C@H](NC(=O)/C(=N\OC(C)(C)C(=O)O)c2csc(N)n2)C(=O)N1S(=O)(=O)O [Aztreonam]	0.064	> 256	> 256	0.047	–	–
CO/N=C(\C(=O)N[C@@H]1C(=O)N2C(C(=O)[O-])=C(C[N+]3(C)CCCC3)CS[C@H]12)c1csc(N)n1 [Cefepime]	0.08	> 64	> 64	0.08	–	–
CO/N=C(\C(=O)N[C@@H]1C(=O)N2C(C(=O)O)=C(COC(C)=O)CS[C@H]12)c1csc(N)n1 [Cefotaxime]	0.25	> 256	> 256	0.125	–	–
CC(C)(O/N=C(\C(=O)N[C@@H]1C(=O)N2C(C(=O)[O-])=C(C[n+]3ccccc3)CS[C@H]12)c1csc(N)n1)C(=O)O [Ceftazidime]	0.25	> 256	> 256	0.38	–	–
CO/N=C(\C(=O)N[C@@H]1C(=O)N2C(C(=O)O)=C(COC(N)=O)CS[C@H]12)c1ccco1 [Cefuroxime]	3	256	> 256	2	–	–
CC(=O)OCC1=C(C(=O)O)N2C(=O)[C@@H](NC(=O)Cc3cccs3)[C@H]2SC1 [Cephalothin]	4	> 256	> 256	6	–	–
C[C@@H](O)[C@H]1C(=O)N2C(C(=O)O)=C(S[C@@H]3CN[C@H](C(=O)Nc4cccc(C(=O)O)c4)C3)[C@H](C)[C@H]12 [Ertapenem]	0.094	> 32	> 32	0.094	still able to grow	–
C[C@@H](O)[C@H]1C(=O)N2C(C(=O)O)=C(S[C@@H]3CN[C@H](C(=O)N(C)C)C3)[C@H](C)[C@H]12 [Meropenem]	0.047	> 32	> 32	0.032	–	–
N[C@@H](CS)C(=O)N[C@@H](Cc1c[nH]cn1)C(=O)O [Oligopeptide 1, Cys-His] (H-Cys-His-OH)	–	–	–	–	–	182 ± 14
N[C@@H](CS)C(=O)N[C@@H](Cc1ccccc1)C(=O)O [Oligopeptide 2, Cys-Phe] (H-Cys-Phe-OH)	–	–	–	–	–	113 ± 9
N[C@@H](CS)C(=O)N[C@@H](Cc1ccc(O)cc1)C(=O)O [Oligopeptide 3, Cys-Tyr] (H-Cys-Tyr-OH)	–	–	–	–	–	> 300
CC(C)[C@H](NC(=O)[C@@H](N)CS)C(=O)O [Oligopeptide 4, Cys-Val] (H-Cys-Val-OH)	–	–	–	–	–	235 ± 18
N[C@@H](CS)C(=O)N[C@@H](CC(=O)O)C(=O)O [Oligopeptide 5, Cys-Asp] (H-Cys-Asp-OH)	–	–	–	–	–	68 ± 5
N[C@@H](CS)C(=O)NCC(=O)N[C@@H](Cc1c[nH]cn1)C(=O)O [Oligopeptide 6, Cys-Gly-His] (H-Cys-Gly-His-OH)	–	–	–	–	–	263 ± 21
N[C@@H](CS)C(=O)NCC(=O)N[C@@H](Cc1ccccc1)C(=O)O [Oligopeptide 7, Cys-Gly-Phe] (H-Cys-Gly-Phe-OH)	–	–	–	–	–	144 ± 13
N[C@@H](CS)C(=O)NCC(=O)N[C@@H](Cc1ccc(O)cc1)C(=O)O [Oligopeptide 8, Cys-Gly-Tyr] (H-Cys-Gly-Tyr-OH)	–	–	–	–	–	> 300
CC(C)[C@H](NC(=O)CNC(=O)[C@@H](N)CS)C(=O)O [Oligopeptide 9, Cys-Gly-Val] (H-Cys-Gly-Val-OH)	–	–	–	–	–	249 ± 21
N[C@@H](CS)C(=O)NCC(=O)N[C@@H](CC(=O)O)C(=O)O [Oligopeptide 10, Cys-Gly-Asp] (H-Cys-Gly-Asp-OH)	–	–	–	–	–	> 300
CC1(C)S[C@@H]2[C@H](NC(=O)Cc3ccccc3)C(=O)N2[C@H]1C(=O)O [Penicillin G]	12	> 32	> 32	12	–	–
